How the values were obtained:
[1] = test system: thiamine transporters (SLC19A2 and SLC19A3); assay type: cell-based, human
human SLC19A3 = molecular target: T1, human SLC19A3 (Homo sapiens, UniProt Q9BZV2); experiment: Microscale thermophoresis; assay type: binding; conditions: for Kd: MST
T1 sequence (Q9BZV2 1-496): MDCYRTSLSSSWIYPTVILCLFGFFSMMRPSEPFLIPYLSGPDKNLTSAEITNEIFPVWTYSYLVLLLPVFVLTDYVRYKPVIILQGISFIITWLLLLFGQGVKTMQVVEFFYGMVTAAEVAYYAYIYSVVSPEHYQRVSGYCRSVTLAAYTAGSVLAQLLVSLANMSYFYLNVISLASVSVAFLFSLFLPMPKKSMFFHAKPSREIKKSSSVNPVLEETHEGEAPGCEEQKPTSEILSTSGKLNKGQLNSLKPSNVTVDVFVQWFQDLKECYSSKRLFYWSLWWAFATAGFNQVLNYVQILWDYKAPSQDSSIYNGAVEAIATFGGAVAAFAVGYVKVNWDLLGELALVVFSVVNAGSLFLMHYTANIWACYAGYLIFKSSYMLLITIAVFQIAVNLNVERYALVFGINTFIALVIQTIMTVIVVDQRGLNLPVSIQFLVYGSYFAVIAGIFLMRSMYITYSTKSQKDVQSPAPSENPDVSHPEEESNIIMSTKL

[2] = pyridoxine, bipolar molecule; cited from earlier work
human SLC19A2 = molecular target: T2, human SLC19A2 (Homo sapiens, UniProt O60779); experiment: Microscale thermophoresis; assay type: binding; conditions: MST
T2 sequence (O60779 1-497): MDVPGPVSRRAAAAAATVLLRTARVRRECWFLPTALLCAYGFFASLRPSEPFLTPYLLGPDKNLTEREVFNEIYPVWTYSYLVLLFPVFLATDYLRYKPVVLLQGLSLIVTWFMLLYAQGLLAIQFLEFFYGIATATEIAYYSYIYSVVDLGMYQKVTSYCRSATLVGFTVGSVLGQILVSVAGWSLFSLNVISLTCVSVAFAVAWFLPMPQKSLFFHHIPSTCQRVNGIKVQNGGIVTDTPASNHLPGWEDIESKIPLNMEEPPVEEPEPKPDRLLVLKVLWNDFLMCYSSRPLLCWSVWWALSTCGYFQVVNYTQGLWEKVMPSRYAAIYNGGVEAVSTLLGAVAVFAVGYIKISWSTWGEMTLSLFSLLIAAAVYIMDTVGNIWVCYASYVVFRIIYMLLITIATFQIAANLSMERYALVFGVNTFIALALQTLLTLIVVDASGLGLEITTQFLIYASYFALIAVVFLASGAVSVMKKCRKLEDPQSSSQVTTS

## CCN1CCN(Cc2ccc(Nc3ncc(F)c(-c4cc(F)c5nc(C)n(C(C)C)c5c4)n3)nc2)CC1 [abemaciclib]
[1]
  Inhibition of 3H-thiamine uptake (in words): inhibitor

## CCCc1ncc(C[n+]2ccccc2C)c(N)n1 [amprolium]
Human SLC19A3; pH 6.0
  Kd: ~450 nM
[1]
  Inhibition of 3H-thiamine uptake (in words): inhibitory effects

## Cc1cc(C#N)cc(C)c1Oc1nc(Nc2ccc(C#N)cc2)nc(N)c1Br [etravirine]
[1]
  Inhibition of 3H-thiamine uptake (in words): inhibitor

## Cc1cnc(Nc2ccc(OCCN3CCCC3)cc2)nc1Nc1cccc(S(=O)(=O)NC(C)(C)C)c1 [fedratinib]
[1]
  Inhibition of 3H-thiamine uptake (in words): inhibitory effects

## CN(C)C(=N)N=C(N)N [metformin]
Human SLC19A3; Supplementary Fig. 12 / 11b
  Affinity (in words): millimolar affinity
[1]
  Inhibition of 3H-thiamine uptake (in words): inhibitory effects

## N#CCNC(=O)c1ccc(-c2ccnc(Nc3ccc(N4CCOCC4)cc3)n2)cc1 [momelotinib]
[1]
  Inhibition of 3H-thiamine uptake (in words): inhibitory effects

## Cc1ncc(C[n+]2csc(CCO)c2C)c(=O)[nH]1 [oxythiamine]
[1]
  Inhibition of 3H-thiamine uptake (in words): inhibitory effects

## Cc1ncc(CO)c(CO)c1O [pyridoxine]
[2]
  pKa (lower value): 5.6

## CCc1nc(N)nc(N)c1-c1ccc(Cl)cc1 [pyrimethamine]
[1]
  Inhibition of 3H-thiamine uptake (in words): inhibitory effects

## Cc1ncc(C[n+]2csc(CCO)c2C)c(N)n1 [thiamine]
Human SLC19A2; pH 6.0
  Kd: ~1200 nM
Human SLC19A2; pH 7.5
  Kd: ~78400 nM
Human SLC19A3; pH 6.0
  Kd: ~250 nM
Human SLC19A3; pH 7.5
  Kd: ~154000 nM

## COc1cc(Cc2cnc(N)nc2N)cc(OC)c1OC [trimethoprium]
[1]
  Inhibition of 3H-thiamine uptake (in words): inhibitory effects

— publication PMC11686366 (Nature Communications, 2024)
